Measurements: patent US6562993B1, “Preservative compounds” (ISP Investments Inc., priority 2002, dated 2003)

What was measured:
Test in all cases: Minimum Inhibitory Concentration (MIC) Test, serial dilution
Format in all cases: cell-based
[1] = tested on: Candida albicans ATCC 10231; settings: C. albicans; weight percent of active ingredients; propylene glycol solvent
Experimental: (§1) The Minimum Inhibitory Concentration (MIC) Test is an in vitro serial dilution procedure to assess antimicrobial activity. The MIC of a substance is the minimum concentration that will inhibit the growth of test organisms. Two species each of bacteria and fungi were included in the evaluation.
(§2) Cultiloop™ transfer cultures were used, and the bacteria were cultured on Brain Heart Infusion agar for 24 hours at 37° C. A saline suspension of each bacterial species was prepared and standardized on the spectrophotometer to the organism inoculum concentration. The yeast culture (Candida) was grown on a slant of Saboraud Dextrose agar for 48 hours at 27° C., and the slant was then washed with saline to prepare the inoculum. The mold culture (Aspergillus) was incubated for 7-10 days at 27° C. until sporulation occurred. The mold inoculum was prepared by washing the mature slant and harvesting the spores after filtration through sterile gauze.
(§3) The results are summarized in the Table below, where the concentrations refer to the weight percents of active ingredients.

[2] = tested on: Aspergillus niger ATCC 16404; settings: A. niger; weight percent of active ingredients; propylene glycol solvent
Experimental: as §1, §2, §3

[3] = tested on: Staphylococcus aureus ATCC 6538; settings: S. aureus; weight percent of active ingredients; propylene glycol solvent
Experimental: as §1, §2, §3

[4] = tested on: Burkholderia cepacia ATCC 25416; settings: B. cepacia; weight percent of active ingredients; propylene glycol solvent
Experimental: as §1, §2, §3

CC(Br)(C#N)CCC#N (stereo not shown) [Compound II, 2-bromo-2-methylglutaronitrile]
0.10%: MIC Cidal [2] | MIC Cidal [3]
<0.05%: MIC Cidal [1] | MIC Static [1] | MIC Static [2] | MIC Static [3] | MIC Cidal [4] | MIC Static [4]

N#CCCC(Br)(C#N)CBr (stereo not shown) [Merguard ®, 1,2-dibromo-2,4-dicyanobutane]
<0.05%: MIC Cidal [1] | MIC Static [1] | MIC Cidal [2] | MIC Static [2] | MIC Cidal [3] | MIC Static [3] | MIC Cidal [4] | MIC Static [4]
